Measurements reported in publication PMC6117091, “The C. difficile clnRAB operon initiates adaptations to the host environment in response to LL-37” (PLoS Pathogens, 2018).

Tested on: gene expression in C. difficile 630Δerm
Assay: RNA-seq, genes differentially expressed in LL-37

Structure (SMILES): CC[C@H](C)[C@H](NC(=O)[C@H](CCCCN)NC(=O)[C@H](CCC(=O)O)NC(=O)[C@H](CCCCN)NC(=O)[C@H](CO)NC(=O)[C@H](CCCCN)NC(=O)[C@H](CCCNC(=N)N)NC(=O)[C@H](Cc1ccccc1)NC(=O)[C@H](Cc1ccccc1)NC(=O)[C@H](CC(=O)O)NC(=O)CNC(=O)[C@H](CC(C)C)NC(=O)[C@@H](N)CC(C)C)C(=O)NCC(=O)N[C@@H](CCCCN)C(=O)N[C@@H](CCC(=O)O)C(=O)N[C@@H](Cc1ccccc1)C(=O)N[C@@H](CCCCN)C(=O)N[C@@H](CCCNC(=N)N)C(=O)N[C@H](C(=O)N[C@H](C(=O)N[C@@H](CCC(N)=O)C(=O)N[C@@H](CCCNC(=N)N)C(=O)N[C@H](C(=O)N[C@@H](CCCCN)C(=O)N[C@@H](CC(=O)O)C(=O)N[C@@H](Cc1ccccc1)C(=O)N[C@@H](CC(C)C)C(=O)N[C@@H](CCCNC(=N)N)C(=O)N[C@@H](CC(N)=O)C(=O)N[C@@H](CC(C)C)C(=O)N[C@H](C(=O)N1CCC[C@H]1C(=O)N[C@@H](CCCNC(=N)N)C(=O)N[C@H](C(=O)N[C@@H](CCC(=O)O)C(=O)N[C@@H](CO)C(=O)O)[C@@H](C)O)C(C)C)[C@@H](C)CC)C(C)C)[C@@H](C)CC [LL-37]
- CD630_18890 fold change in LL-37 (2 µg/ml LL-37, BHIS): 4.54
- CD630_18900 fold change in LL-37 (2 µg/ml LL-37, BHIS): 3.60
- CD630_19120 (eutA) fold change in LL-37 (2 µg/ml LL-37, BHIS): 0.20
- CD630_19150 (eutL) fold change in LL-37 (2 µg/ml LL-37, BHIS): 0.21
- CD630_19180 (eutK) fold change in LL-37 (2 µg/ml LL-37, BHIS): 0.40
- CD630_19210 fold change in LL-37 (2 µg/ml LL-37, BHIS): 0.48
- CD630_19220 (eutN) fold change in LL-37 (2 µg/ml LL-37, BHIS): 0.25
- CD630_19440 fold change in LL-37 (2 µg/ml LL-37, BHIS): 2.03
- CD630_19670 fold change in LL-37 (2 µg/ml LL-37, BHIS): 2.01
- CD630_20140 (ilvD) fold change in LL-37 (2 µg/ml LL-37, BHIS): 2.90
- CD630_20160 fold change in LL-37 (2 µg/ml LL-37, BHIS): 0.26
- CD630_20270 fold change in LL-37 (2 µg/ml LL-37, BHIS): 2.69
- CD630_20280 (racX) fold change in LL-37 (2 µg/ml LL-37, BHIS): 2.39
- CD630_20451 fold change in LL-37 (2 µg/ml LL-37, BHIS): 0.46
- CD630_20751 fold change in LL-37 (2 µg/ml LL-37, BHIS): 2.21
- CD630_20910 fold change in LL-37 (2 µg/ml LL-37, BHIS): 2.49
- CD630_21270 fold change in LL-37 (2 µg/ml LL-37, BHIS): 2.34
- CD630_21430 fold change in LL-37 (2 µg/ml LL-37, BHIS): 0.48
- CD630_21510 fold change in LL-37 (2 µg/ml LL-37, BHIS): 0.48
- CD630_21640 (ldh) fold change in LL-37 (2 µg/ml LL-37, BHIS): 2.95
- CD630_21710 fold change in LL-37 (2 µg/ml LL-37, BHIS): 0.34
- CD630_21930 (cwp24) fold change in LL-37 (2 µg/ml LL-37, BHIS): 2.54
- CD630_22010 fold change in LL-37 (2 µg/ml LL-37, BHIS): 0.40
- CD630_22330 (asrA) fold change in LL-37 (2 µg/ml LL-37, BHIS): 2.43
- CD630_23090 fold change in LL-37 (2 µg/ml LL-37, BHIS): 2.29
- CD630_23300 (xpt) fold change in LL-37 (2 µg/ml LL-37, BHIS): 0.49
- CD630_23310 (mtlD) fold change in LL-37 (2 µg/ml LL-37, BHIS): 0.12
- CD630_23320 (mtlF) fold change in LL-37 (2 µg/ml LL-37, BHIS): 0.12
- CD630_23330 (mtlR) fold change in LL-37 (2 µg/ml LL-37, BHIS): 0.14
- CD630_23340 (mtlA) fold change in LL-37 (2 µg/ml LL-37, BHIS): 0.15
- CD630_23380 (4hbD) fold change in LL-37 (2 µg/ml LL-37, BHIS): 12.95
- CD630_23390 (cat2) fold change in LL-37 (2 µg/ml LL-37, BHIS): 13.27
- CD630_23400 fold change in LL-37 (2 µg/ml LL-37, BHIS): 13.14
- CD630_23410 (abfD) fold change in LL-37 (2 µg/ml LL-37, BHIS): 14.81
- CD630_23420 (sucD) fold change in LL-37 (2 µg/ml LL-37, BHIS): 12.71
- CD630_23430 (cat1) fold change in LL-37 (2 µg/ml LL-37, BHIS): 11.85
- CD630_23440 fold change in LL-37 (2 µg/ml LL-37, BHIS): 10.85
- CD630_23700 (nadC) fold change in LL-37 (2 µg/ml LL-37, BHIS): 0.42
- CD630_23710 (nadB) fold change in LL-37 (2 µg/ml LL-37, BHIS): 0.40
- CD630_23720 (nadA) fold change in LL-37 (2 µg/ml LL-37, BHIS): 0.40
- CD630_23790 (buk2) fold change in LL-37 (2 µg/ml LL-37, BHIS): 3.13
- CD630_23800 (iorB) fold change in LL-37 (2 µg/ml LL-37, BHIS): 10.81
- CD630_23810 (iorA) fold change in LL-37 (2 µg/ml LL-37, BHIS): 13.66
- CD630_23820 fold change in LL-37 (2 µg/ml LL-37, BHIS): 13.76
- CD630_24291 fold change in LL-37 (2 µg/ml LL-37, BHIS): 0.23
- CD630_24610 (dnaK) fold change in LL-37 (2 µg/ml LL-37, BHIS): 0.48
- CD630_24620 (grpE) fold change in LL-37 (2 µg/ml LL-37, BHIS): 0.41
- CD630_24630 (hrcA) fold change in LL-37 (2 µg/ml LL-37, BHIS): 0.49
- CD630_25090 fold change in LL-37 (2 µg/ml LL-37, BHIS): 0.40
- CD630_25100 fold change in LL-37 (2 µg/ml LL-37, BHIS): 0.48
- CD630_25110 fold change in LL-37 (2 µg/ml LL-37, BHIS): 0.48
- CD630_25150 fold change in LL-37 (2 µg/ml LL-37, BHIS): 0.38
- CD630_25160 (ansB) fold change in LL-37 (2 µg/ml LL-37, BHIS): 0.44
- CD630_25171 fold change in LL-37 (2 µg/ml LL-37, BHIS): 2.04
- CD630_25560 fold change in LL-37 (2 µg/ml LL-37, BHIS): 4.24
- CD630_26140 fold change in LL-37 (2 µg/ml LL-37, BHIS): 0.12
- CD630_26640 (murE) fold change in LL-37 (2 µg/ml LL-37, BHIS): 0.35
- CD630_26650 fold change in LL-37 (2 µg/ml LL-37, BHIS): 0.43
- CD630_26691 fold change in LL-37 (2 µg/ml LL-37, BHIS): 0.50
- CD630_26700 fold change in LL-37 (2 µg/ml LL-37, BHIS): 0.43
- CD630_26710 fold change in LL-37 (2 µg/ml LL-37, BHIS): 0.38
- CD630_26820 (pfo) fold change in LL-37 (2 µg/ml LL-37, BHIS): 2.03
- CD630_26860 fold change in LL-37 (2 µg/ml LL-37, BHIS): 0.41
- CD630_26870 fold change in LL-37 (2 µg/ml LL-37, BHIS): 0.46
- CD630_27090 fold change in LL-37 (2 µg/ml LL-37, BHIS): 2.37
- CD630_27250 fold change in LL-37 (2 µg/ml LL-37, BHIS): 2.07
- CD630_27491 fold change in LL-37 (2 µg/ml LL-37, BHIS): 0.38
- CD630_27500 (agrB) fold change in LL-37 (2 µg/ml LL-37, BHIS): 0.49
- CD630_27640 fold change in LL-37 (2 µg/ml LL-37, BHIS): 0.38
- CD630_27840 (cwp6) fold change in LL-37 (2 µg/ml LL-37, BHIS): 2.30
- CD630_27880 fold change in LL-37 (2 µg/ml LL-37, BHIS): 0.48
- CD630_28770 (fhuB) fold change in LL-37 (2 µg/ml LL-37, BHIS): 0.35
- CD630_28780 (fhuD) fold change in LL-37 (2 µg/ml LL-37, BHIS): 0.30
- CD630_29320 fold change in LL-37 (2 µg/ml LL-37, BHIS): 0.30
- CD630_29330 fold change in LL-37 (2 µg/ml LL-37, BHIS): 0.50
- CD630_29341 fold change in LL-37 (2 µg/ml LL-37, BHIS): 0.29
- CD630_29360 fold change in LL-37 (2 µg/ml LL-37, BHIS): 0.44
- CD630_29400 fold change in LL-37 (2 µg/ml LL-37, BHIS): 0.42
- CD630_29420 fold change in LL-37 (2 µg/ml LL-37, BHIS): 0.41
- CD630_29430 fold change in LL-37 (2 µg/ml LL-37, BHIS): 0.45
- CD630_29440 fold change in LL-37 (2 µg/ml LL-37, BHIS): 0.44
- CD630_29470 fold change in LL-37 (2 µg/ml LL-37, BHIS): 0.30
- CD630_29490 fold change in LL-37 (2 µg/ml LL-37, BHIS): 0.46
- CD630_29620 fold change in LL-37 (2 µg/ml LL-37, BHIS): 2.13
- CD630_29710 (bioY) fold change in LL-37 (2 µg/ml LL-37, BHIS): 0.45
- CD630_30250 fold change in LL-37 (2 µg/ml LL-37, BHIS): 0.47
- CD630_30260 fold change in LL-37 (2 µg/ml LL-37, BHIS): 0.45
- CD630_30270 fold change in LL-37 (2 µg/ml LL-37, BHIS): 0.25
- CD630_30340 fold change in LL-37 (2 µg/ml LL-37, BHIS): 0.38
- CD630_30360 fold change in LL-37 (2 µg/ml LL-37, BHIS): 0.39
- CD630_30720 fold change in LL-37 (2 µg/ml LL-37, BHIS): 0.41
- CD630_30990 fold change in LL-37 (2 µg/ml LL-37, BHIS): 0.40
- CD630_31000 fold change in LL-37 (2 µg/ml LL-37, BHIS): 0.36
- CD630_31150 (bglA4) fold change in LL-37 (2 µg/ml LL-37, BHIS): 0.37
- CD630_31360 (bglA7) fold change in LL-37 (2 µg/ml LL-37, BHIS): 0.35
- CD630_31370 (bglF5) fold change in LL-37 (2 µg/ml LL-37, BHIS): 0.39
- CD630_31750 (cggR) fold change in LL-37 (2 µg/ml LL-37, BHIS): 0.22
- CD630_32090 fold change in LL-37 (2 µg/ml LL-37, BHIS): 0.47
- CD630_32100 fold change in LL-37 (2 µg/ml LL-37, BHIS): 0.48
- CD630_32220 (sdaB) fold change in LL-37 (2 µg/ml LL-37, BHIS): 0.49
- CD630_32570 fold change in LL-37 (2 µg/ml LL-37, BHIS): 0.37
- CD630_32600 (phoU) fold change in LL-37 (2 µg/ml LL-37, BHIS): 0.49
- CD630_32620 (pstA) fold change in LL-37 (2 µg/ml LL-37, BHIS): 0.48
- CD630_33440 fold change in LL-37 (2 µg/ml LL-37, BHIS): 0.39
- CD630_33730 (mgtA) fold change in LL-37 (2 µg/ml LL-37, BHIS): 3.39
- CD630_33740 fold change in LL-37 (2 µg/ml LL-37, BHIS): 3.92
- CD630_33750 (mgtC) fold change in LL-37 (2 µg/ml LL-37, BHIS): 2.96
- CD630_33790 fold change in LL-37 (2 µg/ml LL-37, BHIS): 2.14
- CD630_33911 fold change in LL-37 (2 µg/ml LL-37, BHIS): 2.66
- CD630_35370 (phnH) fold change in LL-37 (2 µg/ml LL-37, BHIS): 0.39
- CD630_36010 fold change in LL-37 (2 µg/ml LL-37, BHIS): 0.35
- CD630_22290 fold change in LL-37 (2 µg/ml LL-37, BHIS (Table S5)): 0.51
- genes induced (sub-MIC LL-37, at least 2-fold, p < 0.05): 107 genes
- genes differentially expressed at least 2-fold (sub-MIC LL-37, p < 0.05): 228 genes
